Earlier results, collected in patent US11439651B2 (priority 2020, dated 2022).

How the values were obtained:
[1] = system: SARS; settings: pre-treatment with low concentrations; cultured cells or freshly obtained human nasal epithelial cells
[2] = system: SARS particles; settings: cultured human cells with SARS particles added

Question: For CCCCCCCCCCCCC/C=C/[C@@H](O)[C@@H](N)CO [sphingosine], which “adhesion of and infection with the virus” value [1] is on record?
Answer: The value was “prevented adhesion of and infection with the virus”.

Question: And the cellular infection [2]?
Answer: Its cellular infection is “prevented cellular infection”.
